Test results from patent US6599943B1, “Use of hydroxyguanidines” (WaPharm AB, priority 1996, dated 2003).

What was measured:
Type in all cases: biochemical
[1] = target: bovine milk xanthine oxidase (Bos taurus, UniProt P80457); assay: Oxidation of xanthine to uric acid by xanthine oxidase in absence and presence of oxygen, spectrophotometric; design: host or cells: bovine milk; details: 50 μM guanoxabenz, 50 μM xanthine; both in the absence of oxygen (nitrogen) and in the presence of 20% oxygen
Sequence of bovine milk xanthine oxidase (P80457 whole entry): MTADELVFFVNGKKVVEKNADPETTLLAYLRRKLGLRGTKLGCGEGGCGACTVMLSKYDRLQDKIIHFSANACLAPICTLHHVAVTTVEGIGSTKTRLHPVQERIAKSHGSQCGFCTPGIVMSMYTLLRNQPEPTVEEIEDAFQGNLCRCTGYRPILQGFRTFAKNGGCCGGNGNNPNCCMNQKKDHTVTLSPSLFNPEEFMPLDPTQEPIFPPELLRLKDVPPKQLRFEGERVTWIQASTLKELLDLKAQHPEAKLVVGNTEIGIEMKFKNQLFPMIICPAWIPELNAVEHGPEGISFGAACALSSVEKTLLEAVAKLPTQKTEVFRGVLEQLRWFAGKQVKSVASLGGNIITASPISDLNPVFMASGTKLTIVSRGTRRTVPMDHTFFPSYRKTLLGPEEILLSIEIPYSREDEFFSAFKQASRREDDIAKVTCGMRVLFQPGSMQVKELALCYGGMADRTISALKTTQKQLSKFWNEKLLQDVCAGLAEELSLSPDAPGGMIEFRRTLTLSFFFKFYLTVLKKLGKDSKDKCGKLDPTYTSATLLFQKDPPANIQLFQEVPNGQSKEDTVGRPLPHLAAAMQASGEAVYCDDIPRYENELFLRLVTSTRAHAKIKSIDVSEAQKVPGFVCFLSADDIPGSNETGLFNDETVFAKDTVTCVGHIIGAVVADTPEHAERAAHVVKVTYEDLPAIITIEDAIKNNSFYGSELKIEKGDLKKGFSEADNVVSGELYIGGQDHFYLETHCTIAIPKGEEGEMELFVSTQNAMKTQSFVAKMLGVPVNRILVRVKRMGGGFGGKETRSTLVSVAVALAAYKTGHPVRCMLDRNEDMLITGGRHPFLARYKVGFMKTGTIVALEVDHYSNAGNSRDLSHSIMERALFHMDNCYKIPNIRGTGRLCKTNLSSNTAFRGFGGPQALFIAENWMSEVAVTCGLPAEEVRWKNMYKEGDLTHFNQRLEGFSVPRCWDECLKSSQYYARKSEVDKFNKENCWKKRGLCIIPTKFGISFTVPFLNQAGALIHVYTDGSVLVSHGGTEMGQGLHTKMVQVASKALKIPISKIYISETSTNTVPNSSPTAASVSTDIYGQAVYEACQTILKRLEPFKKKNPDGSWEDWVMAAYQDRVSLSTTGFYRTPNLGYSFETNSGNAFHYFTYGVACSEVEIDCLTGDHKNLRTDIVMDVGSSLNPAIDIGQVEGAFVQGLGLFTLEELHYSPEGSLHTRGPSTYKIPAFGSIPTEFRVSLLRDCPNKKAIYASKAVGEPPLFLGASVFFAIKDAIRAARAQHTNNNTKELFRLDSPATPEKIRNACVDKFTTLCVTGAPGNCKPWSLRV
Method: Capacity of hydroxyguanidines to sustain oxidation of xanthine by xanthine oxidase in the absence and in the presence of oxygen. The capacity of hydroxyguanidines to sustain the oxidation of xanthine to uric acid in the absence and presence of oxygen was assayed by using a spectrophotometric method. In this method bovine milk xanthine oxidase was injected to a Helma® sealable cuvette for anaerobic applications thereby creating 1 ml of a reaction mixture that contained reagents as follows: 50 μM of a hydroxyguanidine, 50 μM xanthine, 0.05 units/ml bovine milk xanthine oxidase, 50 mM Tris and 1.5 mM EDTA; the pH of the reaction mixture being 7.5, and the temperature being 20° C. Anaerobic conditions were assured by pre-gassing all solutions used for 5-10 min, with nitrogen whereas aerobic conditions was assured by exposing the solutions to air. The rate of formation of uric acid was monitored spectrophotometrically by measuring the increase in absorbance at 295 nm (the absorption maximum for uric acid) at timed intervals. In FIG. 5 are shown examplary recordings from these tests. In this test the hydroxyguanidine was guanoxabenz.

[2] = target: T1, crude spleen cytosol (hydroxyguanidine reducing activity) (Rattus norvegicus, UniProt P22985); assay: Reduction of guanoxabenz to guanabenz by crude spleen cytosol, HPLC
T1 construct: from tissue; host or cells: rat spleen (70,000 x g supernatant)
T1 sequence (P22985 whole entry): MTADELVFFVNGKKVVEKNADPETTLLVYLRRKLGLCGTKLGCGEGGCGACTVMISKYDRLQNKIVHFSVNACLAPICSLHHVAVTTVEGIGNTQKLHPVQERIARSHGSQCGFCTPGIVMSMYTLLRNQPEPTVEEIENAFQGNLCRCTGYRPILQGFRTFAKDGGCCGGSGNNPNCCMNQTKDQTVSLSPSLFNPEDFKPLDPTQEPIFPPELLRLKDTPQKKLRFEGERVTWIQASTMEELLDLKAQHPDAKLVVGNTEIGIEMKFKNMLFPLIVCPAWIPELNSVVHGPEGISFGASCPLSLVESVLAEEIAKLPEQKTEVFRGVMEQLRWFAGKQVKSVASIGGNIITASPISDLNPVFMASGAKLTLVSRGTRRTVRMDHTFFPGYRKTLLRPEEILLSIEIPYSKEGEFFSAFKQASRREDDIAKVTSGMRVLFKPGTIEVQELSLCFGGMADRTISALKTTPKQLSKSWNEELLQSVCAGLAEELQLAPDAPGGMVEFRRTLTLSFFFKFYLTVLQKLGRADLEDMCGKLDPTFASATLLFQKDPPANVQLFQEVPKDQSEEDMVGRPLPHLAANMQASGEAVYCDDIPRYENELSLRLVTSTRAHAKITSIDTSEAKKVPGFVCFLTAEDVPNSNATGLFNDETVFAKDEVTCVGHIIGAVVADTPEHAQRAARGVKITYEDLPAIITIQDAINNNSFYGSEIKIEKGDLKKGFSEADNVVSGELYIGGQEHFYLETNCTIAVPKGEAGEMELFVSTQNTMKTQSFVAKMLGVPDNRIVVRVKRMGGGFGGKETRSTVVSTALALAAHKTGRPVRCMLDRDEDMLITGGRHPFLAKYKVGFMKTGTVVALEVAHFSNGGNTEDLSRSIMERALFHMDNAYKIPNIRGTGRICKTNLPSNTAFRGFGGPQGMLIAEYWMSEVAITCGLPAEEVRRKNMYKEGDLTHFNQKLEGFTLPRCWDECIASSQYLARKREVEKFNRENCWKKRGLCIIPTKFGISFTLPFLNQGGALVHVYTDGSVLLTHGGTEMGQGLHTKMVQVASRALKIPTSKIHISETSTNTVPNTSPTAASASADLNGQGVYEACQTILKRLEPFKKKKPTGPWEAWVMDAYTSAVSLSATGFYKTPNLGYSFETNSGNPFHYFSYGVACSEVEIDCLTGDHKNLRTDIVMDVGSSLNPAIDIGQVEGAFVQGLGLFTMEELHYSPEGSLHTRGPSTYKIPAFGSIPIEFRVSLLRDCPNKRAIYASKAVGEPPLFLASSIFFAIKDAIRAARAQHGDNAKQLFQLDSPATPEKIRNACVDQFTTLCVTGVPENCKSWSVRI
Method: Preparation of crude spleen cytosol. Rat spleens were homogenised (1:10 w/v) in ice-cold […] Tris, 1.5 mM EDTA, pH 7.5 with glass/Teflon homogenizer. The homogenate was centrifuged at 30,000×g for 15 min at 4° C. and stored frozen at −80° C. After thawing the supernatant was centrifuged at 70,000×g for 1 hr at 4° C. and used for the assays.
Identification of a reaction product derived from hydroxyguanidine. Crude spleen cytosol was incubated at 25° C. with 70 μM guanoxabenz (2(2,6-dichlorophenyl)methylene-N-hydroxyhydrazine carboxi-imidamide) in the presence of 25 mM Tris-HCl, 0.75 mM EDTA, the total volume being 4 ml. Aliquots of 250 μl were then withdrawn from the reaction mixture after 1, 30, 60, 90 or 240 minutes and heated in a water bath to 80° C. for 5 minutes. The sample was then centrifuged and the supernatant filtered through a 0.22 μm Millipore filter whereafter 200 μl of the filtrate was injected into a reverse phase chromatography column (Waters Symmetry C8) equilibrated in 40% methanol, 60% 10 mM Na-acetate buffer, pH 4.5. The elution speed was 0.5 ml/min and the eluted substances were detected by a UV-monitor set at 260 nm.
In FIG. 1 is shown exemplary details on the time course of appearence of the product.
Preparation of the enzymatic reaction product for NMR-analysis. To obtain enough of the product for NMR studies guanoxabenz (500 μM) was pre-incubated with the crude spleen cytosol for 1 hr. […] Total volume of the reaction mixture was 4 ml. After the incubation the reaction mixture was boiled, centrifuged and filtered, essentially as described above, and aliquots of the materials injected onto the HPLC column. […] The fractions containing the product peak were collected, pooled and lyophilized and then subjected to NMR-analysis.

xanthine oxidase = xanthine oxidase (Bos taurus, UniProt P80457); assay: Inhibition of superoxide radical formation by xanthine oxidase, EPR with DMPO; details: 100 μM guanoxabenz, 100 μM xanthine, 0.04 units/ml xanthine oxidase, 50 μM DMPO
Sequence of xanthine oxidase (P80457 whole entry): as the sequence (P80457 whole entry) above
Method: Capacity of hydroxyguanidines to inhibit the formation of superoxide radicals by xanthine oxidase in the presence of oxygen. The detection of the spin adducts of superoxide formed by xanthine oxidase and xanthine reaction was performed by using a Bruker ER200D-SRC EPR spectrometer equipped with an ER4105ST double cavity and the spin trap agent DMPO, by essentially using the approach described by Britigan et al. (1990). In brief, reaction mixtures of total volumes of 0.5 ml were prepared by adding to a plastic tubes, in the listed order, reagents that gave final concentrations as follows: 50 mM Tris HCl, 1.5 mM EDTA, 100 μM xanthine, 100 μM guanoxabenz, 0.04 units/ml xanthine oxidase and 50 μM DMPO, pH 7.5. As a control served an identical reaction mixture except that guanoxabenz had been omitted. The solutions were immediately transferred to standard flat cells for aqueous samples and spectra were recorded at room temperature. Spectrometer settings were as follows: microwave power 3.99 mW; modulation amplitude 1.028 G; time constant 10.24 ms; modulation frequency 100 kHz; receiver gain, 5×10^4. In FIG. 6 is shown an exemplary recording from these tests. […] This additional signal was due to a contaminant corresponding to “nitric oxide” that was released from the disposable laboratory plastic used in the preparation of the samples (see Buettner et al., 1991).

[3] = 70 μM guanoxabenz, 25° C., after 1 minute incubation, HPLC 260 nm
[4] = 70 μM guanoxabenz, after 1 hour

rate of the formation of uric acid (absorbance at 295 nm) [1]: substantial increase | UV-absorption corresponding to the guanabenz peak [2, 3]: 5% | UV-absorption in the guanoxabenz peak [2, 3]: 95% | guanabenz peak as part of total absorbance of the chromatograms [2, 4]: about ⅓ | guanoxabenz peak as part of total absorbance of the chromatograms [2, 4]: ⅔ | size of guanabenz and guanoxabenz peaks ([2]; 70 μM guanoxabenz, after 4 hours): about equal size | peak corresponding to guanabenz, share of UV-absorbing material (260 nm) ([2]; 500 μM guanoxabenz, 1 hr, MgCl2 (2 mM) and DTT (2 mM)): more than 99% | reduction of the superoxide signal (EPR) (xanthine oxidase): about 60%
Structure (SMILES): N=C(NO)NN=Cc1c(Cl)cccc1Cl [Guanoxabenz, 2(2,6-dichlorophenyl)methylene-N-hydroxyhydrazine carboxi-imidamide]
